Source: patent publication US20260028337A1, “COMPOUND FOR INHIBITING IRAK4 ACTIVITY AND USE THEREOF” (SHENZHEN ZHONGGE BIOLOGICAL TECHNOLOGY CO., LTD., priority 2022, published 2026)
Structures can show the parent of a compound that is named as a salt.

Each molecule was assayed against IRAK4 kinase (Homo sapiens (Human), UniProt Q9NWZ3) (assay: IRAK4 Kinase Inhibition Assay (Cisbio HTRF KinEASE-STK S1 kit)). Conditions: IRAK4 kinase protein 10 nM, ATP 200 μM, STK Substrate 1-biotin 1 μM, 37° C. 2 h, read-out: IC50 (nM), IRAK4 kinase inhibitory activity.
Sequence of IRAK4 kinase (Q9NWZ3 whole entry): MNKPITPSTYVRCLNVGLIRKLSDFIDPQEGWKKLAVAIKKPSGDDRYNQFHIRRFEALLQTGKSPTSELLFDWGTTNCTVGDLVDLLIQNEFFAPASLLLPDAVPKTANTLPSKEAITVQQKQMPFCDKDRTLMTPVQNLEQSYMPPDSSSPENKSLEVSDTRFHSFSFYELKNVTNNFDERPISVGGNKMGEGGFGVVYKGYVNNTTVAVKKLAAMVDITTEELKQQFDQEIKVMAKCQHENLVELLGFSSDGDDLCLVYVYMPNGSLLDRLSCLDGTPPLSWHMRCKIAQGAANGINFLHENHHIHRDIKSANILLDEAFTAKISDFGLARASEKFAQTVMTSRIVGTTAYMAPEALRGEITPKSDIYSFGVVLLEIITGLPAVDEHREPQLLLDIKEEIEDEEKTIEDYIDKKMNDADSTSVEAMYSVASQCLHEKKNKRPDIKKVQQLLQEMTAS
Type: biochemical
Method: Test Example 1. IRAK4 Kinase Inhibition Assay
In this assay, Cisbio HTRF KinEASE-STK SI kit (62S 1 PEB) was used, in which assay/detection buffer, STK Substrate 1-biotin, Streptavidin-XL665, STK Antibody-Cryptate were contained.
After adding compound/DMSO to a 384-well plate (PerkinElmer 6008280) using Echo 665, 5 μL of 2-fold reaction concentration of IRAK4 kinase protein (final concentration: 10 nM) dissolved with assay buffer [1 volume of 5× kinase buffer+20 mM magnesium chloride (Sigma) solution+1 mM DTT (Alfa Aesar) solution+4 volumes deionized water] was added, followed by sealing the shallow well plate, shaking and then centrifuging at 1000 rpm for 1 min, and incubating at room temperature for 5 min; then 5 μL of 2-fold reaction concentration of a 1:1 mixture of STK Substrate 1-biotin (final concentration: 1 μM) and ATP (Sigma A1852) (final concentration: 200 μM) formulated with assay buffer was added, followed by sealing the shallow well plate, shaking and then centrifuging at 1000 rpm for 1 min, and incubating at 37° C. for 2 h, and then 10 μL of a 1:1 mixture of Streptavidin-XL665 (final concentration: 62.5 nM) and STK-antibody-cryptate dissolved with detection buffer was added, followed by sealing the shallow well plate, shaking and then centrifuging at 1000 rpm for 1 min, and incubating at room temperature for 1 h, and thereafter reading the value at the wavelength of 620 nm/665 nm using a microplate reader. The data were analyzed using Prism 9.3 software, and the IC50 value of IRAK4 kinase inhibition was fitted using a four parameter Logistic equation.
OC[C@H]1CC[C@H](n2cc(-n3cc(-c4cnn5ccc(N6CCCC(O)C6)nc45)nn3)c(C(F)F)n2)CC1 (stereo partly shown) [Compound 100A] gave an IC50 of under 100 nM. Work on OC[C@H]1CC[C@H](n2cc(-n3cc(-c4cnn5ccc(N6CCC(O)CC6)nc45)nn3)c(C(F)F)n2)CC1 [Compound 97A] yielded an IC50 of under 100 nM. CC1(C)CC(n2cc(-n3cc(-c4cnn5ccc(N6CCOCC6)nc45)nn3)c(C(F)F)n2)CCN1 (stereo not shown) [Compound 85A, 4-(3-(1-(3-(difluoromethyl)-1-(2,2-dimethylpiperidin-4-yl)-1H-pyrazol-4-yl)-1,2,3-triazol-4-yl]pyrazolo[1,5-a]pyrimidin-5-yl) morpholine] gave an IC50 of under 100 nM. In the case of C[C@H]1CN(c2ccn3ncc(-c4cn(-c5cn(C6CCCCC6)nc5C(F)F)nn4)c3n2)CCO1 [Compound 83A, (2S)-4-(3-{1-[1-cyclohexyl-3-(difluoromethyl)-1H-pyrazol-4-yl]-1H-1,2,3-triazol-4-yl}pyrazolo[1,5-a]pyrimidin-5-yl)-2-methylmorpholine], the IC50 was 100 to 1000 nM. For N[C@@H]1CCCN(c2ccn3ncc(-c4cn(-c5cn(C6CCC(CO)CC6)nc5C(F)F)nn4)c3n2)C1 (stereo partly shown) [Compound 106A], the IC50 was under 100 nM. Work on OC[C@H]1CC[C@H](n2cc(-n3cc(-c4cnn5ccc(N6CC(O)C6)nc45)nn3)c(C(F)F)n2)CC1 [Compound 96A, 1-(3-(1-(3-difluoromethyl)-1-((1r,4r)-4-(methylol)cyclohexyl)-1H-pyrazol-4-yl)-1H-1,2,3-triazol-4-ylpyrazolo[1,5-a]pyrimidin-5-yl)azetidin-3-ol] yielded an IC50 of 100 to 1000 nM. With CC1(C)C[C@@H](n2cc(-n3cc(-c4cnn5ccc(N6CCOCC6)nc45)nn3)c(C(F)F)n2)CCN1 [Compound 87A, (S)-4-(3-(1-(3-(difluoromethyl)-1-(2,2-dimethylpiperidin-4-yl)-1H-pyrazol-4-yl)-1,2,3-triazol-4-yl]pyrazolo[1,5-a]pyrimidin-5-yl) morpholine] the IC50 was 100 to 1000 nM. O=C(NC1CCNC1)c1cnn2c(-c3cn(-c4cn(C5CCCCC5)nc4C(F)F)nn3)ccc2c1 (stereo not shown) [Compound 67A, 7-(1-(1-cyclohexyl-3-(difluoromethyl)-1H-pyrazol-4-yl)-1H-1,2,3-triazol-4-yl]-N-(pyrrolidin-3-yl)pyrrolo[1,2-b]pyridazine-3-formamide] was tested, and the IC50 was over 5000 nM. In the case of OCC1CCC(n2cc(-n3cc(-c4cnn5ccc(N6CCC[C@@H](O)C6)nc45)nn3)c(C(F)F)n2)CC1 (stereo partly drawn) [Compound 113A, (R)-1-(3-(1-(3-(difluoromethyl)-1-((1r,4r)-4-(methylol)cyclohexyl)-1H-pyrazol-4-yl)-1H-1,2,3-triazol-4-yl]pyrazolo[1,5-a]pyrimidin-3-yl) piperidin-3-ol], the IC50 was under 100 nM. C[C@@H]1C[C@@H](n2cc(-n3cc(-c4cnn5ccc(N6CCOCC6)nc45)nn3)c(C(F)F)n2)CCN1 [Compound 72A] was tested, and the IC50 was under 100 nM. OCC1CCC(n2cc(-n3cc(-c4cnn5ccc(N[C@H]6CCCC[C@H]6O)nc45)nn3)c(C(F)F)n2)CC1 (stereo partly drawn) [Compound 107A, (1R,2S)-2-((3-(1-(3-(difluoromethyl)-1-((1R,4S)-4-(methylol)cyclohexyl)-1H-pyrazol-4-yl)-1H-1,2,3-triazol-4-yl]pyrazolo[1,5-a]pyrimidin-5-yl)amino)cyclohexan-1-ol] gave an IC50 of under 100 nM. With Cn1cc(-n2cc(-c3cnn4ccc(N5C[C@H]6C[C@@H]5CO6)nc34)nn2)c(C(F)F)n1 [Compound 46A] the IC50 was 1000 to 5000 nM. With CC(C)(O)CCNc1ccn2ncc(-c3cn(-c4cn([C@H]5CC[C@H](CO)CC5)nc4C(F)F)nn3)c2n1 [Compound 92A, 4-((3-(1-(3-(difluoromethyl)-1-((1r,4r)-4-(methylol)cyclohexyl)-1H-pyrazol-4-yl)-1H-1,2,3-triazol-4-yl]pyrazolo[1,5-a]pyrimidin-5-yl)amino)-2-methylbutan-2-ol] the IC50 was under 100 nM. With OC[C@H]1CC[C@H](n2cc(-n3cc(-c4cnn5ccc(N[C@@H]6CCCC[C@@H]6O)nc45)nn3)c(C(F)F)n2)CC1 [Compound 111A, (1S,2R)-2-((3-(1-(3-(difluoromethyl)-1-((1r,4R)-4-(methylol)cyclohexyl)-1H-pyrazol-4-yl)-1H-1,2,3-triazol-4-yl]pyrazolo[1,5-a]pyrimidin-5-yl)amino)cyclohexan-1-ol] the IC50 was under 100 nM. Molecule N#Cc1cnc2c(-c3cn(-c4cn(C5CCCCC5)nc4C(F)F)nn3)cnn2c1 [Compound 3A, 3-(1-(1-cyclohexyl-3-(difluoromethyl)-1H-pyrazol-4-yl)-1H-1,2,3-triazol-4-yl) pyrazolo[1,5-a]pyrimidine-6-carbonitrile] has an IC50 of 100 to 1000 nM. In the case of FC(F)c1nn(C2CCCCC2)cc1-n1cc(-c2cnn3ccc(N4C[C@H]5C[C@@H]4CO5)nc23)nn1 [Compound 1A, (1R,4R)-5-(3-(1-(1-cyclohexyl-3-(difluoromethyl)-1H-pyrazol-4-yl)-1H-1,2,3-triazol-4-yl]pyrazolo[1,5-a]pyrimidin-5-yl)-2-oxa-5-azabicyclo[2.2.1]heptane], the IC50 was 100 to 1000 nM. In the case of CC1(C)CN(c2ccn3ncc(-c4cn(-c5cn(C6CCC(CO)CC6)nc5C(F)F)nn4)c3n2)CCO1 (stereo not shown) [Compound 89A, ((1r,4r)-4-(3-(difluoromethyl)-4-(4-(5-(2,2-dimethylmorpholinyl)pyrazolo[1,5-a]pyrimidin-3-yl)-1H-1,2,3-triazol-1-yl)-1H-pyrazol-1-ylcyclohexyl)methanol], the IC50 was 100 to 1000 nM. With FC(F)c1nn(C2CCNCC2)cc1-n1cc(-c2cnn3ccc(N4CCOCC4)nc23)nn1 [Compound 69A, 4-(3-(1-(3-(difluoromethyl)-1-(piperidin-4-yl)-1H-pyrazol-4-yl)-1,2,3-triazol-4-yl]pyrazolo[1,5-a]pyrimidin-5-yl) morpholine] the IC50 was 100 to 1000 nM. Molecule CC1(C)C[C@H](n2cc(-n3cc(-c4cnn5ccc(N6CCOCC6)nc45)nn3)c(C(F)F)n2)CCN1 [Compound 86A, (R)-4-(3-(1-(3-(difluoromethyl)-1-(2,2-dimethylpiperidin-4-yl)-1H-pyrazol-4-yl)-1,2,3-triazol-4-yl]pyrazolo[1,5-a]pyrimidin-5-yl) morpholine] has an IC50 of 100 to 1000 nM. N#Cc1cnc2c(ccn2-c2cn(-c3cn(C4CCCCC4)nc3C(F)F)nn2)c1 [Compound 43A, 1-(1-(1-cyclohexyl-3-(difluoromethyl)-1H-pyrazol-4-yl)-1H-1,2,3-triazol-4-yl]-1H-pyrrolo[2,3-b]pyridine-5-carbonitrile] showed an IC50 of 1000 to 5000 nM. NC(=O)c1cnn2c(-c3cn(-c4cn(C5CCNCC5)nc4C(F)F)nn3)ccc2c1 [Compound 84A, 7-(1-(3-(difluoromethyl)-1-(piperidin-4-yl)-1H-pyrazol-4-yl)-1H-1,2,3-triazol-4-yl)pyrrolo[1,2-b]pyridazine-3-formamide] showed an IC50 of 100 to 1000 nM. In the case of CC1(O)CCN(c2ccn3ncc(-c4cn(-c5cn([C@H]6CC[C@H](CO)CC6)nc5C(F)F)nn4)c3n2)CC1 [Compound 93A, 1-(3-(1-(3-difluoromethyl)-1-((1r,4r)-4-(methylol)cyclohexyl)-1H-pyrazol-4-yl)-1H-1,2,3-triazol-4-ylpyrazolo[1,5-a]pyrimidin-5-yl)-4-methylpiperidin-4-ol], the IC50 was under 100 nM. OC[C@H]1CC[C@H](n2cc(-n3cc(-c4cnn5ccc(N6CCCOCC6)nc45)nn3)c(C(F)F)n2)CC1 [Compound 98A] showed an IC50 of under 100 nM. C[C@@H]1CC(n2cc(-n3cc(-c4cnn5ccc(N6CCOCC6)nc45)nn3)c(C(F)F)n2)CCN1 (stereo partly drawn) [Compound 80A, 4-(3-(3-difluoromethyl)-1-(2R)-2-methylpiperidin-4-yl)-1H-pyrazol-4-yl)-1H-1,2,3-triazol-4-yl)pyrazolo[1,5-a]pyrimidin-5-yl) morpholine hydrochloride] gave an IC50 of 100 to 1000 nM. With C[C@H]1COCCN1c1ccn2ncc(-c3cn(-c4cn(C5CCCCC5)nc4C(F)F)nn3)c2n1 [Compound 82A, (S)-4-(3-(1-(1-cyclohexyl-3-(difluoromethyl)-1H-pyrazol-4-yl)-1H-1,2,3-triazol-4-yl]pyrazolo[1,5-a]pyrimidin-5-yl)-3-methylmorpholine] the IC50 was 100 to 1000 nM. In the case of OCC1CCC(n2cc(-n3cc(-c4cnn5ccc(N6CC7CC[C@H](C6)O7)nc45)nn3)c(C(F)F)n2)CC1 (stereo partly shown) [Compound 99A, ((1r,4r)-4-(4-(4-(5-(8-oxa-3-azabicyclo[3.2.1]oct-3-yl)pyrazolo[1,5-a]pyrimidin-3-yl)-1H-1,2,3-triazol-1-yl)-3-(difluoromethyl)-1H-pyrazol 1-yl)cyclohexyl)methanol], the IC50 was 100 to 1000 nM. O=S1(=O)CCN(c2ccn3ncc(-c4cn(-c5cn([C@H]6CC[C@H](CO)CC6)nc5C(F)F)nn4)c3n2)CC1 [Compound 91A, 4-(3-(1-(3-(difluoromethyl)-1-((1r,4r)-4-(methylol)cyclohexyl)-1H-pyrazol-4-yl)-1H-1,2,3-triazol-4-yl)pyrazolo[1,5-a]pyrimidin-5-yl)thiomorpholine 1,1-dioxide] was tested, and the IC50 was 100 to 1000 nM. Work on OC[C@H]1CC[C@H](n2cc(-n3cc(-c4cnn5ccc(N6CCOCC6)nc45)nn3)c(C(F)F)n2)CC1 [Compound 104A, ((1r,4r)-4-(3-(difluoromethyl)-4-(4-(5-morpholinyl-pyrazolo[1,5-a]pyrimidin-3-yl)-1H-1,2,3-triazol-1-yl)-1H-pyrazol-1-yl]cyclohexyl)methanol] yielded an IC50 of under 100 nM.
